# Laboratory results: US20240182431A1, “NEW CONTRAST AGENT FOR USE IN MAGNETIC RESONANCE IMAGING” (Bayer Aktiengesellschaft, priority 2021, published 2024)
# Test: Partition coefficient (logP butanol/buffer)
# Assay type: physicochemical
# Settings: 1-butanol / 50 mM Tris-HCl, pH 7.4, room temperature
row,Structure (SMILES),Log P (butanol/buffer)
1,"CCOCCOCCOc1ccc(CCC[C@@H](C(=O)O)N2CCN(C(CO)C(=O)[O-])CCN(C(CO)C(=O)[O-])CCN(C(CO)C(=O)[O-])CC2)cc1.[Gd+3] (mixture of isomers) [Example 21, gadolinium-2,2′,2″-{10-[(1S)-1-carboxy-4-{4-[2-(2-ethoxyethoxy)ethoxy]phenyl}butyl]-1,4,7,10-tetraazacyclododecane-1,4,7-triyl}tris(3-hydroxypropanoate)]",−1.03
2,"O=C([O-])CN1CCN(C(Cc2ccc(OCC(F)(F)C(F)F)cc2)C(=O)O)CCN(CC(=O)[O-])CCN([C@@H](CO)C(=O)[O-])CC1.[Gd+3] (mixture of isomers) [Example 33, gadolinium (2S)-2-[4,10-bis(carboxylatomethyl)-7-{1-carboxy-2-[4-(2,2,3,3-tetrafluoropropoxy)phenyl]ethyl}-1,4,7,10-tetraazacyclododecan-1-yl]-3-hydroxypropanoate]",−0.55
3,"CCOCCOCCOc1ccc(CC(C(=O)O)N2CCN(CC(=O)[O-])CCN(C(C)C(=O)[O-])CCN(CC(=O)[O-])CC2)cc1.[Gd+3] (single isomer, unassigned) [Example 5, gadolinium 2-[7-(1-carboxy-2-{4-[2-(2-ethoxyethoxy)ethoxy]phenyl}ethyl)-4,10-bis(carboxylatomethyl)-1,4,7,10-tetraazacyclododecan-1-yl]propanoate]",−1.52
4,"CCOCCOCCOc1ccc(CC(C(=O)O)N2CCN(CC(=O)[O-])CCN(C(C)C(=O)[O-])CCN(CC(=O)[O-])CC2)cc1.[Gd+3] (single isomer, unassigned) [Example 6, gadolinium 2-[7-(1-carboxy-2-{4-[2-(2-ethoxyethoxy)ethoxy]phenyl}ethyl)-4,10-bis(carboxylatomethyl)-1,4,7,10-tetraazacyclododecan-1-yl]propanoate]",−1.44
5,"CCOCCOc1ccc(CC(C(=O)O)N2CCN(CC(=O)[O-])CCN(C(CC)C(=O)[O-])CCN(CC(=O)[O-])CC2)cc1.[Gd+3] (single isomer, unassigned) [Example 7, gadolinium 2-[7-{1-carboxy-2-[4-(2-ethoxyethoxy)phenyl]ethyl}-4,10-bis(carboxylatomethyl)-1,4,7,10-tetraazacyclododecan-1-yl]butanoate]",−1.09
6,"CCOCCOc1ccc(CC(C(=O)O)N2CCN(CC(=O)[O-])CCN(C(CC)C(=O)[O-])CCN(CC(=O)[O-])CC2)cc1.[Gd+3] (single isomer, unassigned) [Example 8, gadolinium 2-[7-{1-carboxy-2-[4-(2-ethoxyethoxy)phenyl]ethyl}-4,10-bis(carboxylatomethyl)-1,4,7,10-tetraazacyclododecan-1-yl]butanoate]",−1.04
7,"CCOCCOCCOc1ccc(CC(C(=O)O)N2CCN(CC(=O)[O-])CCN(CC(=O)[O-])CCN(CC(=O)[O-])CC2)cc1.[Gd+3] (stereo not shown) [Example 2, gadolinium 2,2′,2″-{10-[1-carboxy-2-{4-[2-(2-ethoxyethoxy)ethoxy]phenyl}ethyl]-1,4,7,10-tetraazacyclododecane-1,4,7-triyl}triacetate]",−1.63
8,"CCOCCOCCOc1ccc(C[C@@H](C(=O)O)N2CCN(CC(=O)[O-])CCN(CC(=O)[O-])CCN(CC(=O)[O-])CC2)cc1.[Gd+3] [Example 3, gadolinium 2,2′,2″-{10-[(1S)-1-carboxy-2-{4-[2-(2-ethoxyethoxy)ethoxy]phenyl}ethyl]-1,4,7,10-tetraazacyclododecane-1,4,7-triyl}triacetate]",−1.61
9,"CCOCCOCCOc1ccc(C[C@H](C(=O)O)N2CCN(CC(=O)[O-])CCN(CC(=O)[O-])CCN(CC(=O)[O-])CC2)cc1.[Gd+3] [Example 4, gadolinium 2,2′,2″-{10-[(1R)-1-carboxy-2-{4-[2-(2-ethoxyethoxy)ethoxy]phenyl}ethyl]-1,4,7,10-tetraazacyclododecane-1,4,7-triyl}triacetate]",−1.61
10,"CCCCOc1ccc(CCCC[C@@H](C(=O)O)N2CCN([C@@H](CO)C(=O)[O-])CCN([C@@H](CO)C(=O)[O-])CCN([C@@H](CO)C(=O)[O-])CC2)cc1.[Gd+3] [Example 9, gadolinium (2S,2′S,2″S)-2,2′,2″-{10-[(1S)-5-(4-butoxyphenyl)-1-carboxypentyl]-1,4,7,10-tetraazacyclododecane-1,4,7-triyl}tris(3-hydroxypropanoate)]",0.26
11,"CCOCCOCCOCCOc1ccc(CC(C(=O)O)N2CCN(CC(=O)[O-])CCN(CC(=O)[O-])CCN(CC(=O)[O-])CC2)cc1.[Gd+3] (stereo not shown) [Example 10, gadolinium 2,2′,2″-{10-[1-carboxy-2-(4-{2-[2-(2-ethoxyethoxy)ethoxy]ethoxy}phenyl)ethyl]-1,4,7,10-tetraazacyclododecane-1,4,7-triyl}triacetate]",−1.70
12,"CCOCCOCCOCCOc1ccc(C[C@@H](C(=O)O)N2CCN(CC(=O)[O-])CCN(CC(=O)[O-])CCN(CC(=O)[O-])CC2)cc1.[Gd+3] [Example 11, gadolinium 2,2′,2″-{10-[(1S)-1-carboxy-2-(4-{2-[2-(2-ethoxyethoxy)ethoxy]ethoxy}phenyl)ethyl]-1,4,7,10-tetraazacyclododecane-1,4,7-triyl}triacetate]",−1.68
13,"CCOCCOCCOCCOc1ccc(C[C@H](C(=O)O)N2CCN(CC(=O)[O-])CCN(CC(=O)[O-])CCN(CC(=O)[O-])CC2)cc1.[Gd+3] [Example 12, gadolinium 2,2′,2″-{10-[(1R)-1-carboxy-2-(4-{2-[2-(2-ethoxyethoxy)ethoxy]ethoxy}phenyl)ethyl]-1,4,7,10-tetraazacyclododecane-1,4,7-triyl}triacetate]",−1.68
14,"CCOCCOCCOCCOc1ccc(CC(C(=O)O)N2CCN(CC(=O)[O-])CCN(C(COC)C(=O)[O-])CCN(CC(=O)[O-])CC2)cc1.[Gd+3] (stereo not shown) [Example 13, gadolinium 2-{7-[1-carboxy-2-(4-{2-[2-(2-ethoxyethoxy)ethoxy]ethoxy}phenyl)ethyl]-4,10-bis(carboxylatomethyl)-1,4,7,10-tetraazacyclododecan-1-yl}-3-methoxypropanoate]",−1.53
15,"CCCCOc1ccc(CC(C(=O)O)N2CCN(CC(=O)[O-])CCN(CC(=O)[O-])CCN(CC(=O)[O-])CC2)cc1.[Gd+3] (stereo not shown) [Example 14, gadolinium 2,2′,2″-{10-[2-(4-butoxyphenyl)-1-carboxyethyl]-1,4,7,10-tetraazacyclododecane-1,4,7-triyl}triacetate]",−0.38

# Same assay, conditions: pH 7.4
row,Structure (SMILES),Log P (butanol/buffer)
1,"CCOCCOCCOc1ccc(CCC[C@@H](C(=O)O)N2CCN(C(CCO)C(=O)[O-])CCN(C(CCO)C(=O)[O-])CCN(C(CCO)C(=O)[O-])CC2)cc1.[Gd+3] (mixture of isomers) [Example 36, gadolinium-2,2′-{4-[(1S)-1-carboxy-4-{4-[2-(2-ethoxyethoxy)ethoxy]phenyl}butyl]-10-[1-carboxylato-3-hydroxypropyl]-1,4,7,10-tetraazacyclododecane-1,7-diyl}bis(4-hydroxybutanoate)]",−1.08
